Test results published in patent US5446026A, “Potent non-opiate analgesic” (Advanced Peptides & Biotechnology Sciences, priority 1993, dated 1995).
Like-named read-outs stand apart in the source and are kept apart here. No end group written: not given here.

How the values were obtained:
[1] = periaqueductal gray administration; cited from earlier work
[2] = analgesia after subcutaneous injection (tail-flick and hot plate tests); assay type: in vivo, rodent
[3] = test system: bone; assay: uptake of calcium into bone; conditions: under the conditions tested
From the text: (§1) Studies of analgesia in monkeys is underway and following animal toxicity human trials should be undertaken. […] We would expect that this peptide, like other peptide analogs of naturally occurring modulatory substances, would be potent in quite low (milligram) doses in humans and should be able to alleviate quite severe pain even in these low doses. [drawing 1] R1, R2 =OH: Cholic Acid 89.010a R1 =H, R2 =OH: Chenodeoxycholic Acid 89.010b R1 =OH, R2 =H: Deoxycholic Acid [drawing 2] PEPTIDE-Pro-Arg-Thr-Asn-Thr-Gly-Ser-Gly-Thr-Pro-amide.

[4] = rats; cited from earlier work
[5] = cited from earlier work
[6] = biological target: T1, calcitonin receptor (Homo sapiens, UniProt P30988); assay: in vitro receptor binding, displacement of 125-I calcitonin
T1 sequence (P30988 25-474): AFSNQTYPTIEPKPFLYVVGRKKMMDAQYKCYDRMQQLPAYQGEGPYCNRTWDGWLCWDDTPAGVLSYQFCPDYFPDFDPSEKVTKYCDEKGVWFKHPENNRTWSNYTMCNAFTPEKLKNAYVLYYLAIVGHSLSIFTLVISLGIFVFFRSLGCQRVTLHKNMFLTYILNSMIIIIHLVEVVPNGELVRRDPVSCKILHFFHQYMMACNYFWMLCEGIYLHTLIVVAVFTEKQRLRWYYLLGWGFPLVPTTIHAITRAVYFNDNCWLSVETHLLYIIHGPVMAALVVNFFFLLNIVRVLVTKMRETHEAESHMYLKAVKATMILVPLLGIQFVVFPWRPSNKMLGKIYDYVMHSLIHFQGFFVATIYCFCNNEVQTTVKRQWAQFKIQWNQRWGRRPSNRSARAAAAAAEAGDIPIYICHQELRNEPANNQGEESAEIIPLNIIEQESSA

[7] = biological target: T2, 69 Kd receptor molecule (calcitonin receptor) (Homo sapiens, UniProt P30988); assay: crosslinking / SDS-PAGE in vitro receptor binding
T2 sequence (P30988 25-474): T1 sequence (P30988 25-474)

[8] = three classical tests of rodent analgesia (hot plate, paw pressure, tail flick); assay type: in vivo; conditions: paw pressure and tail flick tests (FIG. 4)
[9] = observation of rodent behavior, righting reflex, inclined plane; assay type: in vivo
From the text: as §1

CC(C)C[C@H](NC(=O)[C@H](Cc1ccccc1)NC(=O)CNC(=O)CNC(=O)[C@@H](N)Cc1ccc(O)cc1)C(=O)O [enkephalin]
analgesia [1]: weak and transient

CN1CC[C@]23c4c5ccc(O)c4O[C@H]2[C@@H](O)C=C[C@H]3[C@H]1C5 [morphine, reference compound]
analgesia at two hours, the last time point tested [2]: has already returned to baseline

CC(C)C[C@H](NC(=O)[C@H](CCCCN)NC(=O)CNC(=O)[C@H](CC(C)C)NC(=O)[C@@H](NC(=O)[C@@H]1CSSC[C@H](N)C(=O)N[C@@H](CO)C(=O)N[C@@H](CC(N)=O)C(=O)N[C@@H](CC(C)C)C(=O)N[C@@H](CO)C(=O)N[C@@H]([C@@H](C)O)C(=O)N1)C(C)C)C(=O)N[C@@H](CO)C(=O)N[C@@H](CCC(N)=O)C(=O)N[C@@H](CCC(=O)O)C(=O)N[C@@H](CC(C)C)C(=O)N[C@@H](Cc1c[nH]cn1)C(=O)N[C@@H](CCCCN)C(=O)N[C@@H](CC(C)C)C(=O)N[C@@H](CCC(N)=O)C(=O)N[C@H](C(=O)N[C@@H](Cc1ccc(O)cc1)C(=O)N1CCC[C@H]1C(=O)N[C@@H](CCCNC(=N)N)C(=O)N[C@H](C(=O)N[C@@H](CC(N)=O)C(=O)N[C@H](C(=O)NCC(=O)N[C@@H](CO)C(=O)NCC(=O)N[C@H](C(=O)N1CCC[C@H]1C(N)=O)[C@@H](C)O)[C@@H](C)O)[C@@H](C)O)[C@@H](C)O [salmon calcitonin, reference compound]
uptake of calcium into bone [3]: profound response

Calcitonin
analgesic activity [4]: extremely potent analgesic
penetration into the brain ([5]; human, in vivo): does not penetrate into the brain
side effects ([5]; human, in vivo): No important side effects
analgesic activity ([5]; terminal cancer patients, injection into the subarachnoid space): extremely potent analgesic

Pro-Arg-Thr-Asn-Thr-Gly-Ser-Gly-Thr-Pro-NH2 (PRTNTGSGTP-NH2) [PD89.010b, modified calcitonin decapeptide]
in vitro receptor binding as human calcitonin analog ([6]; displacement of 125-I human calcitonin (FIG. 2A)): potent
in vitro receptor binding as salmon calcitonin analog ([6]; displacement of 125I salmon calcitonin (FIG. 2B)): weak
displacement of iodinated salmon calcitonin from the 69 Kd receptor molecule ([7]; at 1 μM (FIG. 3A)): completely displaces
displacement of iodinated human calcitonin from the 69 Kd receptor molecule ([7]; at 1 μM (FIG. 3B)): completely displaces
analgesic responses [8]: significant and profound analgesic responses
onset of analgesia compared with morphine [2]: much more rapid onset of analgesia
analgesia, tail-flick test ([2]; one quarter the molar equivalent of morphine (FIG. 5A)): profound and long lived analgesia
analgesia, hot plate test ([2]; one quarter the molar equivalent of morphine (FIG. 5B)): profound and long lived analgesia
analgesia at two hours, the last time point tested [2]: still is showing significant analgesia
behavior and balance on an inclined plane ([9]; in vivo): remained unchanged
righting reflex ([9]; in vivo): remained unchanged
behavioral incapacitation effects ([9]; trained observers of rodent behavior): no obvious behavioral incapacitation effects
uptake of calcium into bone [3]: does not appear to enhance
